Assay results: patent US20250059187A1, “COVALENTLY BINDING INHIBITORS OF G12S, G12D AND/OR G12E MUTANTS OF K-RAS GTPASE” (The Regents of the University of California, priority 2021, published 2025)

Tests used:
[1] = system: A549 cells (homozygous KRAS p.G12S mutation); assay: Immunoblot and Raf-RBD pulldown in A549 cells; assay type: cell-based; details: 10 μM, 2 h
Experimental: Cells were passed for at least two generations after cryorecovery before they were used for assays. All cell lines were tested mycoplasma negative using MycoAlert™ Mycoplasma Detection Kit (Lonza). When indicated, cells were treated with drugs at 40-60% confluency at a final DMSO concentration of 1%. At the end of treatment period, cells were placed on ice. Unless otherwise indicated, adherent cells were washed once with ice-cold PBS (1 mL), scraped with a spatula, and pelleted by centrifugation (500×g, 5 min). Suspension cells were pelleted by centrifugation (500×g, 5 min), washed with 1 mL ice-cold PBS, and pelleted again. Cells were lysed in RIPA buffer supplemented with protease and phosphatase inhibitors (cOmplete and phosSTOP, Roche) on ice for 10 min. For RBD pulldown experiments, cells were lysed in Co-IP Lysis Buffer in lieu of RIPA buffer. Lysates were clarified by high-speed centrifugation (19,000×g, 10 min). Concentrations of lysates were determined with protein BCA assay (Thermo Fisher) and adjusted to 2 mg/mL with additional RIPA buffer (or Co-IP Lysis Buffer). Samples were mixed with 5×SDS Loading Dye and heated at 95° C. for 5 min.
Ras·GTP pulldown was performed with GST-RBD agarose beads (Cytoskeleton, 10 μL, 30 μg loaded GST-RBD). 50 μL lysate (2 mg/mL) was mixed with 10 μL beads, and the suspension was incubated at 4° C. for 1 h with constant end-to-end rotation. The beads were settled by centrifugation (500×g, 5 min) and the supernatant was carefully removed. The beads were washed with 2×500 μL ice-cold Co-IP wash buffer. Bound protein was eluted with 10 μL 2×SDS Loading Buffer.
Membranes were blocked in 5% BSA-TBST for 1 h at 23° C. […] After washing the membrane three times with TBST (5 min each wash), secondary antibodies (goat anti-rabbit IgG-IRDye 800 and goat anti-mouse IgG-IRDye 680, Li-COR) were added as solutions in 5% skim milk-TBST at the dilutions recommended by the manufacturer. Secondary antibody binding was allowed to proceed for 1 h at 23° C. The membrane was washed three times with TBST (5 min each wash) and imaged on a Li-COR Odyssey fluorescence imager.

[2] = molecular target: K-Ras(G12S) (Homo sapiens, UniProt P01116, G12S); assay: Covalent modification of recombinant K-Ras(G12S) by whole-protein mass spectrometry; assay type: binding; set-up: human K-Ras (G12S, aa 1-169); 6xHis tag + TEV cleavage site (N, cleaved yes); made in house; host or cells: E. coli BL21(DE3); details: 23° C.; for covalent reaction with K-Ras(G12S)·GDP: 10 μM compound; for % covalent modification of K-Ras G12S: 24-h incubation, 100 μM compound, pH 7.5
Experimental: (§1) Test compounds were prepared as 100× stock solutions in DMSO. K-Ras proteins were diluted with SEC Buffer (20 mM HEPES 7.5, 150 mM NaCl, 1 mM MgCl2) to 400 nM or 1 μM. In a typical reaction, 0.5 μL 100× compound stock was mixed with 50 μL diluted K-Ras protein, and the resulting mixture was incubated for the desired amount of time. The extent of modification was assessed by electrospray mass spectrometry using a Waters Xevo G2-XS system equipped with an Acquity UPLC BEH C4 1.7 μm column. […] For kinetic measurements, a 2× compound solution was first prepared in SEC Buffer, which was then mixed with 400 nM K-Ras(G12S) protein at 1:1 (v/v) ratio. Injection time stamps were used to calculate elapsed time.
as §1, with “K-Ras(G12D)” for “K-Ras(G12S)”

[3] = molecular target: T1, wild type K-Ras (Homo sapiens, UniProt P01116); assay: Covalent modification of test protein after incubation with compound; assay type: binding; details: 24-h incubation with 100 μM compound at 23° C. at pH 7.5
T1 construct: human K-Ras (wildtype, aa 1-169); 6xHis tag + TEV cleavage site (N, cleaved yes); made in house; host or cells: E. coli BL21(DE3)

[4] = molecular target: T2, K-Ras G12E (Homo sapiens, UniProt P01116, G12E); assay: as above; assay type: binding; details: 24-h incubation with 100 μM compound at 23° C. at pH 7.5
T2 construct: human K-Ras (G12E, aa 1-169); 6xHis tag + TEV cleavage site (N, cleaved yes); made in house; host or cells: E. coli BL21(DE3)

[5] = molecular target: T3, K-Ras G12D (Homo sapiens, UniProt P01116, G12D); assay: as above; assay type: binding; details: 24-h incubation with 100 μM compound at 23° C. at pH 7.5
T3 construct: human K-Ras (G12D, aa 1-169); 6xHis tag + TEV cleavage site (N, cleaved yes); made in house; host or cells: E. coli BL21(DE3)

[6] = molecular target: T1, wild type K-Ras; assay: Covalent modification of recombinant wild-type K-Ras by whole-protein mass spectrometry; assay type: binding; details: 24-h incubation, 100 μM compound, 23° C., pH 7.5
Experimental: (§2) Test compounds were prepared as 100× stock solutions in DMSO. K-Ras proteins were diluted with SEC Buffer (20 mM HEPES 7.5, 150 mM NaCl, 1 mM MgCl2) to 400 nM or 1 μM. In a typical reaction, 0.5 μL 100× compound stock was mixed with 50 μL diluted K-Ras protein, and the resulting mixture was incubated for the desired amount of time. The extent of modification was assessed by electrospray mass spectrometry using a Waters Xevo G2-XS system equipped with an Acquity UPLC BEH C4 1.7 μm column. The mobile phase was a linear gradient of 5-95% acetonitrile/water+0.05% formic acid. For kinetic measurements, a 2× compound solution was first prepared in SEC Buffer, which was then mixed with 400 nM K-Ras(G12S) protein at 1:1 (v/v) ratio. Injection time stamps were used to calculate elapsed time.
as §2, with “K-Ras(G12D)” for “K-Ras(G12S)”

| SMILES | effects on phospho-Akt, phospho-Erk and Ras·GTP levels [1] | covalent reaction with K-Ras(G12S)·GDP [2] | % covalent modification of wild type K-Ras [3] [%] | % covalent modification of K-Ras G12E [4] [%] | % covalent modification of K-Ras G12S [2] [%] | % covalent modification of K-Ras G12D [5] [%] | % covalent modification of wild type K-Ras [6] [%] |
| --- | --- | --- | --- | --- | --- | --- | --- |
| CN1CCC[C@H]1COc1nc2c(c(N3CC[C@H]4C(=O)O[C@H]4C3)n1)CCN(c1cccc3cccc(Cl)c13)C2 [3′] | neither adagrasib nor 3′ had any observable effects on these markers | enhanced reaction |  |  |  |  |  |
| O=C1OCC12CCN(c1nc(OCC34CCCN3CCC4)nc3c1CCN(c1cccc4cccc(Cl)c14)C3)CC2 [Compound 13-018] |  |  | 85.8 | 75.1 | 92.8 | 87.8 | 85.8 |
| CN1CCC[C@@H]1COc1nc2c(c(N3C[C@@H]4OC(=O)[C@@H]4C3)n1)CCN(c1cccc3cccc(Cl)c13)C2 [Compound 12-058] |  |  | 6.0 | 7.0 | 94.0 | 5.0 | 6.0 |
| CN1CCC[C@@H]1COc1nc2c(c(N3CCC4(CC3)CC(=O)O4)n1)CCN(c1cccc3cccc(Cl)c13)C2 [Compound 13-006] |  |  | 0 | 0 | 0 | 0 | 0 |
| CN1CCC[C@@H]1COc1nc2c(c(N3CC[C@@]4(C)C(=O)O[C@H]4C3)n1)CCN(c1cccc3cccc(Cl)c13)C2 [Compound 12-028] |  |  | 0 | 0 | 19.0 | 0 | 0 |
| CC1(c2cc(NCC(=O)N3CC[C@H]4C(=O)O[C@H]4C3)c(O)cc2Cl)CC1 [Compound 06-093] |  |  | 4.8 | 5.3 | 0 | 2.4 | 4.8 |
| CN1CCC[C@@H]1COc1nc2c(c(N3CCC4(CC3)CN(S(=O)(=O)O)C4=O)n1)CCN(c1cccc3cccc(Cl)c13)C2 [Compound 12-087] |  |  | 0 | 0 | 0 | 0 | 0 |
| CN1CCC[C@@H]1COc1nc2c(c(N3CC[C@H]4C(=O)O[C@H]4C3)n1)CCN(c1cccc3cccc(Cl)c13)C2 [Compound 12-077] |  |  | 7.5 | 8.6 | 100 | 6.9 | 7.5 |
| CN1CCC[C@@H]1COc1nc2c(c(N3CCN4C(=O)C[C@H]4C3)n1)CCN(c1cccc3cccc(Cl)c13)C2 [Compound 12-074] |  |  | 0 | 0 | 0 | 0 | 0 |
| CC1(c2cc(NCC(=O)N3CC[C@H]4OC(=O)[C@H]4C3)c(O)cc2Cl)CC1 [Compound 06-092] |  |  | 8.0 | 7.4 | 0 | 2.4 | 8.0 |
| O=C1O[C@H]2CN(c3nc(OCC45CCCN4CCC5)nc4c3CCN(c3cccc5cccc(Cl)c35)C4)CC[C@@H]12 [4′] | decreased the level of Ras·GTP | enhanced reaction | 0 | 0 | 100 | 0 | 0 |
